The supplement of paper PMC9663587

Assays:
Experiment in all cases: GRmax, 72 h; higher = less effect;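 further: breast cell lines in 384-well plates, nine doses across a 10^4 range, Dye Drop imaging of viable cells vs DMSO and time-zero plates, GR 0 means no net growth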
[1] = tested on: BT474
[2] = tested on: HCC1187
[3] = tested on: MDAMB361
[4] = tested on: SUM52PE
[5] = tested on: CAL51
[6] = tested on: MDAMB175VII
[7] = tested on: AU565
[8] = tested on: PDX1328
[9] = tested on: EFM19
[10] = tested on: MDAMB231
[11] = tested on: ZR7530
[12] = tested on: MCF12A
[13] = tested on: T47D
[14] = tested on: SUM185PE
[15] = tested on: MGH312

Row | SMILES | GRmax, 72 h [1] [GR] | GRmax, 72 h [2] [GR] | GRmax, 72 h [3] [GR] | GRmax, 72 h [4] [GR] | GRmax, 72 h [5] [GR] | GRmax, 72 h [6] [GR] | GRmax, 72 h [7] [GR] | GRmax, 72 h [8] [GR] | GRmax, 72 h [9] [GR] | GRmax, 72 h [10] [GR] | GRmax, 72 h [11] [GR] | GRmax, 72 h [12] [GR] | GRmax, 72 h [13] [GR] | GRmax, 72 h [14] [GR] | GRmax, 72 h [15] [GR]
1 | COc1ccc2c(c1)[C@]1(C[C@H]1c1ccc3c(/C=C/c4ccc(CN5C[C@@H](C)O[C@@H](C)C5)cc4)n[nH]c3c1)C(=O)N2 | 0.18 | -0.485 | 0.272 | 0.121 | 0.0084 | 0.046 | -0.165 | -0.0338 | 0.146 | 0.0653 | 0.174 | 0.0038 | -0.0071 | 0.364 | -0.28
2 | CC(=O)O[C@H]1C(=O)[C@@]2(C)[C@H]([C@H](OC(=O)c3ccccc3)[C@]3(O)C[C@H](OC(=O)[C@H](O)[C@@H](NC(=O)c4ccccc4)c4ccccc4)C(C)=C1C3(C)C)[C@]1(OC(C)=O)CO[C@@H]1C[C@@H]2O [Paclitaxel] (max 1 µM) | -0.636 | -0.754 | -0.609 | -0.401 | -0.22 | -0.469 | -0.498 | -0.403 | -0.639 | -0.12 | -0.597 | -0.124 | -0.134 | 0.298 | -0.508
3 | CCCCOc1c(C(=O)c2c(F)cc(C)cc2F)c[nH]c2nncc1-2 (max 10 µM) | 0.503 | 0.437 | 0.216 | 0.299 | 0.28 | -0.0619 | -0.158 | 0.773 | 0.188 | 0.227 | 0.212 | 0.338 | 0.0035 | 0.905 | 0.0975
4 | Cc1nc(-c2cn3c(n2)-c2ccc(-c4cnn(C(C)(C)C(N)=O)c4)cc2OCC3)n(C(C)C)n1 [Taselisib/GDC0032] (max 10 µM) | -0.989 | -0.0769 | -0.99 | -0.0187 | -0.413 | -0.937 | -0.531 | -0.0629 | -0.143 | 0.0709 | -0.478 | 0.074 | -0.105 | -0.367 | -0.927
5 | Cc1nn(C)c(COc2ccc(N3CCN(S(=O)(=O)N(C)C)CC3)cc2)c1-c1cccc2c(CCCOc3cccc4ccccc34)c(C(=O)O)n(CCN3CCOCC3)c12 (max 10 µM) | 0.69 | 0.863 | 0.985 | 0.373 | 0.992 | 0.705 | 0.611 | 0.873 | 1 | 0.957 | 0.576 | 0.993 | 0.575 | 0.532 | 0.775
6 | C=CC(=O)Nc1ccc(C(=O)Nc2[nH]nc3c2CN(C(=O)N[C@H](CN(C)C)c2ccccc2)C3(C)C)cc1 [YKL-5-124] (max 10 µM) | -0.566 | -0.635 | -0.835 | 0.0084 | 0.0082 | -0.771 | -0.563 | 0.177 | 0.0431 | -0.19 | -0.625 | 0.0267 | -0.146 | -0.0052 | -0.919
7 | Cc1cc(C(C)Nc2ccccc2)c2nc(N3CCOCC3)cc(=O)n2c1 (stereo not given) [TGX221] (max 10 µM) | 0.524 | 0.46 | 0.799 | 0.755 | 0.91 | 0.886 | 0.607 | 0.778 | 0.843 | 0.851 | 0.925 | 1.05 | 0.799 | 0.509 | -0.158
8 | CC1(N)CCN(c2cnc(-c3cccc(Cl)c3Cl)c(N)n2)CC1 [SHP099] (max 10 µM) | 0.889 | 0.77 | 0.626 | 0.937 | 0.904 | -0.0734 | 0.97 | 0.58 | 0.992 | 0.943 | 0.715 | 0.929 | 0.879 | 0.457 | 0.976
